Data on three compounds can be found in patent US4234579A, “Penicillanic acid 1,1-dioxides as β-lactamase inhibitors” (priority 1979, dated 1980).

Where two headings read alike, the source gives them in different places.

What all share (test): Mode MIC of antibiotic and PA 1,1-Dioxide alone and in combination
Type in all cases: cell-based

One assay has as its system Staphylococcus aureus. As to conditions: for MIC: Staphylococcus aureus, 18 h, read-out: Mode MIC alone. An excerpt: (§1) As indicated hereinbefore, the compounds of formula I, wherein R^1 is hydrogen or an ester-forming residue readily hydrolyzable in vivo, are antibacterial agents of medium potency. […] The procedure which is followed is the one recommended by the International Collaborative Study on Antibiotic Sensitivity Testing (Ericcson and Sherris, Acta. Pathologica et Microbiologia Scandinav, Supp. 217, Section B: 64-68 [1971]), and employs brain heart infusion (BHI) agar and the inocula replicating device. Overnight growth tubes are diluted 100 fold for use as the standard inoculum (20,000-10,000 cells in approximately 0.002 ml. are placed on the agar surface; 20 ml. of BHI agar/dish). Twelve 2 fold dilutions of the test compound are employed, with initial concentration of the test drug being 200 mcg./ml. Single colonies are disregarded when reading plates after 18 hrs. at 37° C. The susceptibility (MIC) of the test organism is accepted as the lowest concentration of compound capable of producing complete inhibition of growth as judged by the naked eye.
(§2) The manner in which the said compounds of the formula I increase the effectiveness of a β-lactam antibiotic can be appreciated by reference to experiments in which the MIC of a given antibiotic alone, and a compound of the formula I wherein R^1 is hydrogen, alone, are measured. These MIC's are then compared with the MIC values obtained with a combination of the given antibiotic and the compound of the formula I wherein R^1 is hydrogen. […] The MIC values of combinations are measured using the method described by Barry and Sabath in "Manual of Clinical Microbiology", edited by Lenette, Spaulding and Truant, 2nd Edition, 1974, American Society for Microbiology.
(§3) From Table II, it can be seen that against 19 ampicillin-resistant strains of Staphylococcus aureus, the mode MIC of ampicillin, and of penicillanic acid 1,1-dioxide, is 200 mcg./ml. […] The other entries in Table II show enhancement of the antibacterial effectiveness of ampicillin against 26 ampicillin resistant strains of Haemophilus influenzae, 18 ampicillin resistant strains of Klebsiella pneumoniae, and 15 strains of the anerobe Bacteroides fragilis. Tables III, IV and V show enhancement of the antibacterial potency of benzylpenicillin (penicillin G) carbenicillin (α-carboxybenzylpenicillin) and cefazolin, respectively, against strains of S. aureus, H. influenzae, K. pneumoniae and Bacteroides fragilis.

The test system of the next assay is Bacteroides fragilis. Particulars: for MIC: Bacteroides fragilis, 18 h, read-out: Mode MIC alone.
Excerpt: as §1, §2, §3

The subject of the next assay is Klebsiella pneumoniae. As to conditions: for MIC: Klebsiella pneumoniae, 18 h, read-out: Mode MIC alone.
Excerpt: as §1, §2, §3

For the next assay, the system named is Haemophilus influenzae. Particulars: for MIC: Haemophilus influenzae, 18 h, alone.
Excerpt: as §1, §2, §3

Take `CC1(C)S[C@@H]2[C@H](NC(=O)[C@H](N)c3ccccc3)C(=O)N2[C@H]1C(=O)O` [ampicillin, reference compound]: the MIC in the assay with Staphylococcus aureus (Table II, 19 ampicillin-resistant strains, alone) was 200 µg/mL; in the assay on Bacteroides fragilis (Table II, 15 strains, alone), 50 µg/mL; in the assay on Klebsiella pneumoniae (Table II, 18 ampicillin resistant strains, alone), over 400 µg/mL; in the assay with Haemophilus influenzae (Table II, 26 ampicillin resistant strains, read-out: Mode MIC alone) it was 200 µg/mL. Besides, the “Mode MIC's of ampicillin and PA 1,1-Dioxide in combination” value in the assay with Staphylococcus aureus (Table II, 19 ampicillin-resistant strains, ampicillin + PA 1,1-Dioxide in combination) came to 1.56 µg/mL; with Bacteroides fragilis (Table II, 15 strains, ampicillin + PA 1,1-Dioxide in combination), 1.56 µg/mL; with Klebsiella pneumoniae (Table II, 18 ampicillin resistant strains, ampicillin + PA 1,1-Dioxide in combination), 6.25 µg/mL; in the assay on Haemophilus influenzae (Table II, 26 ampicillin resistant strains, ampicillin + PA 1,1-Dioxide in combination), 0.78 µg/mL.
Consider `CC1(C)S[C@@H]2[C@H](NC(=O)C(C(=O)O)c3ccccc3)C(=O)N2[C@H]1C(=O)O` (stereo partly drawn) [carbenicillin, α-carboxybenzylpenicillin, reference compound], for which the MIC in the assay on Staphylococcus aureus (Table IV, 20 strains, alone) was 12.5 µg/mL; in the assay with Bacteroides fragilis (Table IV, 15 strains, alone) it was 50 µg/mL; with Klebsiella pneumoniae (Table IV, 16 strains, alone), over 400 µg/mL; with Haemophilus influenzae (Table IV, 25 strains, read-out: Mode MIC alone), 6.25 µg/mL. In addition, the Mode MIC's of carbenicillin and PA 1,1-Dioxide in combination was determined as 6.25 µg/mL in the assay on Staphylococcus aureus (Table IV, 20 strains, carbenicillin + PA 1,1-Dioxide in combination); 3.12 µg/mL in the assay on Bacteroides fragilis (Table IV, 15 strains, carbenicillin + PA 1,1-Dioxide in combination); 50 µg/mL in the assay with Klebsiella pneumoniae (Table IV, 16 strains, carbenicillin + PA 1,1-Dioxide in combination); 0.39 µg/mL in the assay with Haemophilus influenzae (Table IV, 25 strains, carbenicillin + PA 1,1-Dioxide in combination).
With `CC1(C)S[C@@H]2[C@H](NC(=O)Cc3ccccc3)C(=O)N2[C@H]1C(=O)O` [penicillin G, reference compound], the MIC was determined as 200 µg/mL in the assay with Staphylococcus aureus; 25 µg/mL with Bacteroides fragilis; 400 µg/mL with Klebsiella pneumoniae; 50 µg/mL in the assay on Haemophilus influenzae (read-out: Mode MIC alone, Table III, 25 strains). Besides, the Mode MIC's of penicillin G and PA 1,1-Dioxide in combination came to 3.12 µg/mL in the assay on Staphylococcus aureus (Table III, 20 strains, penicillin G + PA 1,1-Dioxide in combination); 1.56 µg/mL with Bacteroides fragilis (Table III, 15 strains, penicillin G + PA 1,1-Dioxide in combination); 25 µg/mL in the assay on Klebsiella pneumoniae (Table III, 24 strains, penicillin G + PA 1,1-Dioxide in combination); 0.78 µg/mL in the assay with Haemophilus influenzae (Table III, 25 strains, penicillin G + PA 1,1-Dioxide in combination).
